Values joined by “and” are separate entries in the source; they are usually repeats but may differ in a detail not shown here. Equal entries are not always repeated.
Columns and labels:
[1] = tested on: Caco-2 cells; experiment: Annexin V-FITC/PI apoptosis flow cytometry, Caco-2; assay type: cell-based, Human; details: Caco-2, IC50 concentration, 48 h
Experimental: (§1) After washing the cells with cold PBS, they were resuspended in 100 µl binding buffer containing Annexin V-FITC (5 μL) and PI (5 μL) solution. After incubation for 15 min at room temperature, cells were washed and suspended in 100 μL of 1 × binding buffer. Cells were investigated by a FACSCanto II ([…]) flow cytometry system. The percentage of apoptotic cells was calculated by summation of the cells in (annexin V+ , PI−) and (annexin V+ , PI+) and the percentage of necrotic cells achieved from (annexin V−, PI+). An Annexin-V/PI assay was performed via flow cytometry to measure the percentage of cells with early and late apoptotic changes.

[2] = tested on: MCF-7, A549 and Caco-2 cell lines; experiment: Real time PCR of apoptosis pathway genes; assay type: cell-based, Human; details: IC50 values, 48 h, GAPDH reference gene
Experimental: Then, the cells were rinsed with cold PBS and harvested. Total RNA was isolated from MCF-Z, A549, and Caco-2 cell lines by the TRIzol method (TRIzol™ Reagent (Invitrogen, Catalog number: 15596026)). Briefly, the cells were centrifuged at 500 g at 4 °C, the plates were processed for cell lysate by 750 μl of RiboEx; then 200 μl chloroform was subjoined to the cell lysate and after incubating for 2 min at room temperature, they were centrifuged at 12,000 g for 20 min (4 °C). Following collection of aqueous phases, one volume of isopropyl alcohol was dispensed for precipitation of total RNA at 12,000 g for 20 min (4 °C). The RNA plate was rinsed with 75% ethanol and dissolved in deep water. Complementary DNA (cDNA) synthesis was performed by Revert Aid Reverse Transcriptase (Cat numb: EP0441, Thermo Scientific, Lithuania) according to the manufacturer’s instructions. For evaluation of the apoptosis pathway genes, real time PCR was carried out based on the following PCR program[28]: initial denaturation at 95 °C for 15 min, 45 cycles of denaturation at 95 °C for 15 sec, and annealing/extension at 60 °C for 50 sec. The real time PCR mixture contained 5 μL 2x SYBR Green Master Mix (RealQ Plus 2x Master Mix Green, Ampliqon, Denmark), 2 μL cDNA, 0.5 μL of 5 pmol/μL primer pair mix (Eurofin, Germany), and 3 μL H2O. […]

[3] = tested on: Caco-2 human colon cancer cells; experiment: MTT cell viability assay, Caco-2; assay type: cell-based; details: for IC50: MTT
Experimental: (§2) All cancer cells were cultured in RPMI 1640 medium with 10% FBS in a humidified incubator of 95% air and 5% CO2 at 37 °C. […] Then, […] of MTT solution (5 mg/ml) was added to every well and kept at 37 °C for 4 h in the dark. After removing the medium, 200 µl DMSO was added, and the solution was kept on a shaker for approximately 15 min until the formazan solved completely. The absorbance was evaluated at 490 nm with an ELISA reader. The IC50 was computed by GraphPad Prism 7.0 software. […] All of cell lines were treated for three different duration times (24, 48 and 72 h). […] Cell viability was assessed with MTT and is presented relative to untreated cells (set to 100%).

[4] = tested on: MCF-7 human breast cancer cells; experiment: MTT cell viability assay, MCF-7; assay type: cell-based
Experimental: as §2, with “h). The Caco-2 cells were very sensitive to Pt(TSC)Cl in comparison with the two others in all three different durations of treatment. We also used cisplatin, a commercially available platinum-based compound, as a reference.” for “h).”

[5] = tested on: Caco-2 cells; experiment: Cell cycle distribution by PI flow cytometry, Caco-2; assay type: cell-based, Human; details: Caco-2, IC50 concentration, 48 h
Experimental: (§3) Evaluation of cell cycle progression was performed by flow cytometry of propidium iodide and can identify the fraction of time spent by cells in various stages of the cell cycle. […] Cell cycle distribution was determined by flow cytometry by the protocol described previously. The control condition consisted of cells cultured in the absence of treatment but in the presence of PI. After harvesting the cells with trypsin, they were rinsed and fixed with 70% ethanol and kept for 3 days at 4 °C. Then, the samples were centrifuged, and after removal of supernatants […], the cells were dispersed in 300 µL of PBS. Next, after adding 10 µL of ribonuclease-A (10 mg/mL) and 45 min of incubation, 10 µL propidium iodide (1 mg/mL) was added to each of the samples and vortexed. After 10 min of incubation at room temperature and in the dark, the cells were examined by a FACSCalibur flow cytometer to estimate the cell cycle phases. FlowJo 7.6 software was used to analyze the cell cycle.

[6] = tested on: A549 cells; experiment: Annexin V-FITC/PI apoptosis flow cytometry, A549; assay type: cell-based, Human; details: A549, IC50 concentration, 48 h
Experimental: as §1

[7] = tested on: MCF-7 cells; experiment: Annexin V-FITC/PI apoptosis flow cytometry, MCF-7; assay type: cell-based, Human; details: MCF-7, IC50 concentration, 48 h
Experimental: as §1

[8] = tested on: Caco-2 cells; experiment: Western blot of apoptotic proteins; assay type: cell-based, Human; details: Caco-2, IC50 value, 48 h
Experimental: Assessment of apoptotic protein level alterations by western blot analysis by the protocol described previously. The control included cells without treatment. To provide the cell lysate, cells were collected and treated with the following materials: RIPA buffer [500 µL of Tris–HCl (pH = 8), one tablet of protease inhibitor cocktail, 0.003 g EDTA, 0.08 g NaCl, 0.025 g sodium deoxycholate, 0.01 g SDS and 10 µl of Triton NP40 (1%)] used at 4 °C. After that, the cells were centrifuged at 12,000 rpm for 10 min at 4 °C. To measure total protein, the supernatant of cells was determined by the Bradford assay (Bio–Rad protein assay, Bio–Rad Laboratories, USA) using a spectrophotometer (Bibby Scientific Ltd, Beacon Rd, UK). The portions of target protein received from the sodium dodecyl sulfate–polyacrylamide gel electrophoresis (SDS–PAGE) were carried over the polyvinylidene difluoride (PVDF) membrane and were blocked with TBST buffer containing 5% (w/v) skim milk (0.1% v/v Tween®20-tris buffered saline: TBST). The blocked PVDF membranes that contained the target proteins were incubated with specific primary antibodies: Bax (B-9) mouse monoclonal antibody (Santa Cruz) (1:1000), Bcl-2 sc-492 (Santa Cruz) rabbit monoclonal antibody (1:1000), caspase-7 (C7) (Cell Signaling) rabbit polyclonal antibody (1:1000), Caspase-3 Cell Signaling rabbit monoclonal antibody (1:1000), caspase-9 (Cell Signaling) rabbit polyclonal antibody (1:1000), GAPDH (Santa Cruz) mouse monoclonal antibody (1:1000) and P27 (Elabscience) rabbit polyclonal antibody (1:400) that were diluted with blocking buffer) overnight at 4 °C. The membrane was washed with TBST and incubated with secondary antibodies (m-IgGκ BP-HRP (Santa Cruz) for Bax (B-9), Bcl-2 and GAPDH, and mouse anti-rabbit IG-HRP (Santa Cruz) was used for Caspase-3, 7, 9 and P27, which were diluted using blocking buffer (1:1000).) for 1 h at room temperature. The target protein bands were visualized by an enhanced chemiluminescence detection kit (Thermo Fisher Scientific, Breda, the Netherlands) and Amersham® Imager 600 system (GE Healthcare Life Sciences, Eindhoven, Netherlands). Finally, the western blotting results were normalized to the expression of GAPDH as the loading control. All the protein bands were quantified by ImageJ software (v. 1.52n).

[9] = tested on: A549 human lung cancer cells; experiment: MTT cell viability assay, A549; assay type: cell-based
Experimental: as §2, with “h). The Caco-2 cells were very sensitive to Pt(TSC)Cl in comparison with the two others in all three different durations of treatment. We also used cisplatin, a commercially available platinum-based compound, as a reference.” for “h).”

[10] = tested on: Hek293 human embryonic kidney cells; experiment: MTT cell viability assay, Hek293 (nephrotoxicity); assay type: cell-based; details: Hek293 normal kidney cells, 24 h
Experimental: All cancer cells were cultured in RPMI 1640 medium with 10% FBS in a humidified incubator of 95% air and 5% CO2 at 37 °C. […] Then, […] of MTT solution (5 mg/ml) was added to every well and kept at 37 °C for 4 h in the dark. After removing the medium, 200 µl DMSO was added, and the solution was kept on a shaker for approximately 15 min until the formazan solved completely. The absorbance was evaluated at 490 nm with an ELISA reader. The IC50 was computed by GraphPad Prism 7.0 software. […] Cell viability was assessed with MTT and is presented relative to untreated cells (set to 100%).

[11] = tested on: A549 cells; experiment: Cell cycle distribution by PI flow cytometry, A549; assay type: cell-based, Human; details: A549, IC50 concentration, 48 h
Experimental: as §3

[12] = tested on: MCF-7 cells; experiment: Cell cycle distribution by PI flow cytometry, MCF-7; assay type: cell-based, Human; details: MCF-7, IC50 concentration, 48 h
Experimental: as §3

SMILES: [Cl][Pt-2]12[S]C(Nc3ccccc3)=N[N+]1=Cc1cccc[n+]12 (stereo not drawn) [Pt(TSC)Cl complex, [Pt(TSC)Cl]]
- Late apoptosis (PI+/FITC+) cells (Q2) [1]: 52.4%
- Necrosis (PI+/FITC-) cells (Q1) [1]: 4.79%
- Viable (PI-/FITC-) cells (Q4) [1]: 5.58%
- expression of apoptotic pathway genes Bax and Caspases 9, 3 and 7 vs control [2]: upregulated
- IC50 ([3]; Caco-2, 24 h): 17.2 µM
- fold more toxicity than cisplatin ([3]; Caco-2, 48 h): 46 fold
- IC50 ([3]; Caco-2, 48 h): 2.3 µM
- IC50 ([3]; Caco-2, 72 h): 1.75 µM
- IC50 ([4]; MCF-7, 24 h): 200 µM
- IC50 ([4]; MCF-7, 48 h): 193 µM
- IC50 ([4]; MCF-7, 72 h): 181 µM
- G0/G1, percentage of cells [5]: 30.34%
- G2/M, percentage of cells [5]: 5.08%
- S, percentage of cells [5]: 14.91%
- SubG1, percentage of cells [5]: ~51%
- Early apoptosis (PI-/FITC+) cells (Q3) [6]: 3.74%
- Late apoptosis (PI+/FITC+) cells (Q2) [6]: 7.12%
- Necrosis (PI+/FITC-) cells (Q1) [6]: 3.9%
- Viable (PI-/FITC-) cells (Q4) [6]: 85.2%
- percentage of apoptotic cells (early + late) [6]: 10.86%
- Early apoptosis (PI-/FITC+) cells (Q3) [7]: 6.47%
- Late apoptosis (PI+/FITC+) cells (Q2) [7]: 23.8%
- Necrosis (PI+/FITC-) cells (Q1) [7]: 2.38%
- Viable (PI-/FITC-) cells (Q4) [7]: 67.3%
- Bcl2 protein levels [8]: downregulation
- Bax protein level, fold vs control group ([8]; normalized to GAPDH): 1.9 fold
- caspase 3 protein level, fold vs control group ([8]; normalized to GAPDH): 1.97 fold
- caspase 7 protein level, fold vs control group ([8]; normalized to GAPDH): 1.92 fold
- caspase 9 protein level, fold vs control group ([8]; normalized to GAPDH): 3.2 fold
- p27 protein, fold increase vs control group ([8]; normalized to GAPDH): 2.14 fold
- IC50 ([9]; A549, 24 h): 147 µM
- IC50 ([9]; A549, 48 h): 102 µM
- IC50 ([9]; A549, 72 h): 69.3 µM
- IC50 [10]: 63.9 µM
- G0/G1, percentage of cells [11]: 47.71%
- G2/M, percentage of cells [11]: 15.66%
- S, percentage of cells [11]: 13.94%
- SubG1, percentage of cells [11]: 22% and 21.78%
- G0/G1, percentage of cells [12]: 53.17%
- G2/M, percentage of cells [12]: 14.70%
- S, percentage of cells [12]: 28% and 27.72%
- SubG1, percentage of cells [12]: 4.95%

SMILES: N.N.[Cl][Pt][Cl] [cisplatin, reference compound]
- IC50 ([4]; MCF-7, 24 h): 162 µM
- IC50 ([4]; MCF-7, 48 h): 142 µM
- IC50 ([4]; MCF-7, 72 h): 150 µM
- Early apoptosis (PI-/FITC+) cells (Q3) [6]: 7.50%
- Late apoptosis (PI+/FITC+) cells (Q2) [6]: 7.83%
- Necrosis (PI+/FITC-) cells (Q1) [6]: 1.73%
- percentage of apoptotic cells (early + late) [6]: 15.33%
- Early apoptosis (PI-/FITC+) cells (Q3) [7]: 8.48%
- Late apoptosis (PI+/FITC+) cells (Q2) [7]: 10.4%
- Necrosis (PI+/FITC-) cells (Q1) [7]: 3.24%
- percentage of apoptotic cells (early + late) [7]: 18.88%
- IC50 ([9]; A549, 24 h): 96.8 µM
- IC50 ([9]; A549, 48 h): 42.9 µM
- IC50 ([9]; A549, 72 h): 13.1 µM
- IC50 [10]: 4.15 µM
- SubG1, percentage of cells [11]: 0.42%
- G0/G1, percentage of cells ([11]; listed as Cis): 66.94%
- G2/M, percentage of cells ([11]; listed as Cis): 16.08%
- S, percentage of cells ([11]; listed as Cis): 16.13%
- G2/M, percentage of cells [12]: 15.88%
- S, percentage of cells [12]: 37.2%
- G0/G1, percentage of cells ([12]; listed as Cis): 37.21%
- S, percentage of cells ([12]; listed as Cis): 37.43%
- SubG1, percentage of cells ([12]; listed as Cis): 6.8%
